In the supplement of paper PMC7695840:
“And” between values parts separate entries of the source, which are not always exact repeats. Equal values may be shown once. Where a name gives a salt, the structure may show the parent alone.

What was measured:
[1] = tested on: Staphylococcus aureus MW2 (mecA+); assay: IC50 (growth, competition assay); settings: cefoxitin: subinhibitory
How it was run: (§1)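 Signals from DsRed (540/590) and GFP (485/520) were scaled on every plate between single-strain control medians, with No Treatment then set to 0.5. The cells were a 1:1 mix of pre-induced fluorescent S. aureus MW2 strains with and without the resistance gene, grown unshaken for 20 h at 37 °C and 90% humidity in LB in 1536-well plates under a subinhibitory drug dose set each day. Each strain's IC50 was defined as the dose halving the No Treatment signal, or the maximal signal.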

[2] = tested on: Staphylococcus aureus MW2 delta-mecA (mecA-); assay: IC50 (growth, competition assay); settings: cefoxitin: subinhibitory
How it was run: as §1

Compound: COc1cccc(OC)c1C(=O)N[C@@H]1C(=O)N2[C@@H]1SC(C)(C)[C@@H]2C(=O)O [STAPHCILLIN]
- IC50 ([1]; fluorescent label: DsRed): < 9.85 µM
- IC50 ([1]; fluorescent label: GFP): < 9.85 µM
- IC50 ([2]; fluorescent label: DsRed): < 9.85 µM
- IC50 ([2]; fluorescent label: GFP): < 9.85 µM

Compound: CC(=O)N1CCN(c2ccc(OCC3COC(Cn4ccnc4)(c4ccc(Cl)cc4Cl)O3)cc2)CC1 (stereo unspecified) [KETOZOLE]
- IC50 ([1]; fluorescent label: DsRed): 112 µM
- IC50 ([1]; fluorescent label: GFP): 132 µM
- IC50 ([2]; fluorescent label: DsRed): 50.6 µM
- IC50 ([2]; fluorescent label: GFP): 32.2 µM

Compound: CC(C)[C@H]1c2ccc(F)cc2CC[C@@]1(CCN(C)CCCc1nc2ccccc2[nH]1)OC(=O)C1CC1 [NNC 55-0396]
- IC50 ([1]; fluorescent label: DsRed): 14.8 µM
- IC50 ([1]; fluorescent label: GFP): 14.9 µM
- IC50 ([2]; fluorescent label: DsRed): < 9.85 µM
- IC50 ([2]; fluorescent label: GFP): < 9.85 µM

Compound: N#Cc1cc([N+](=O)[O-])c2sc(C(N)=O)[n+]([O-])c2c1 [BTO-1]
- IC50 ([1]; fluorescent label: DsRed): 19.5 µM
- IC50 ([1]; fluorescent label: GFP): 18.9 µM
- IC50 ([2]; fluorescent label: DsRed): < 9.85 µM
- IC50 ([2]; fluorescent label: GFP): < 9.85 µM

Compound: CN(C)c1ccc(O)c2c1C[C@H]1C[C@H]3[C@H](N(C)C)C(O)=C(C(N)=O)C(=O)[C@@]3(O)C(O)=C1C2=O [SOLODYN]
- IC50 ([1]; fluorescent label: DsRed): < 9.85 µM
- IC50 ([1]; fluorescent label: GFP): < 9.85 µM
- IC50 ([2]; fluorescent label: DsRed): < 9.85 µM
- IC50 ([2]; fluorescent label: GFP): < 9.85 µM

Compound: Cc1cc(-n2c(=O)[nH]c(=O)n(C)c2=O)ccc1Oc1ccc(SC(F)(F)F)cc1 [Toltrazuril]
- IC50 ([1]; fluorescent label: DsRed): 34.6 µM
- IC50 ([1]; fluorescent label: GFP): 71.9 µM
- IC50 ([2]; fluorescent label: DsRed): 24.3 µM
- IC50 ([2]; fluorescent label: GFP): 27.3 µM

Compound: O=S1(=O)N(CCN2CC=C(c3c[nH]c4cc(F)ccc34)CC2)c2cccc3c2N1CCC3 [LY-367,265]
- IC50 ([1]; fluorescent label: DsRed): 39 µM
- IC50 ([1]; fluorescent label: GFP): 45 µM
- IC50 ([2]; fluorescent label: DsRed): < 9.85 µM
- IC50 ([2]; fluorescent label: GFP): 13.1 µM

Compound: CO[C@@]12[C@H](COC(N)=O)C3=C(C(=O)C(C)=C(N)C3=O)N1C[C@@H]1N[C@@H]12 [MUTAMYCIN]
- IC50 ([1]; fluorescent label: DsRed): < 9.85 µM
- IC50 ([1]; fluorescent label: GFP): < 9.85 µM
- IC50 ([2]; fluorescent label: DsRed): < 9.85 µM
- IC50 ([2]; fluorescent label: GFP): < 9.85 µM

Compound: N#Cc1c(Cl)c(Cl)c(Cl)c(C#N)c1Cl [CHLOROTHALONIL]
- IC50 ([1]; fluorescent label: DsRed): < 9.85 µM
- IC50 ([1]; fluorescent label: GFP): < 9.85 µM
- IC50 ([2]; fluorescent label: DsRed): < 9.85 µM
- IC50 ([2]; fluorescent label: GFP): < 9.85 µM

Compound: CC[C@H](C)[C@H](N)C1=N[C@H](C(=O)N[C@@H](CC(C)C)C(=O)N[C@H](CCC(=O)O)C(=O)N[C@H](C(=O)N[C@H]2CCCCNC(=O)[C@H](CC(N)=O)NC(=O)[C@@H](CC(=O)O)NC(=O)[C@H](Cc3cnc[nH]3)NC(=O)[C@@H](Cc3ccccc3)NC(=O)[C@H]([C@@H](C)CC)NC(=O)[C@@H](CCCN)NC2=O)[C@@H](C)CC)CS1 [BACITRACIN]
- IC50 ([1]; fluorescent label: DsRed): > 150 µM
- IC50 ([1]; fluorescent label: GFP): > 150 µM
- IC50 ([2]; fluorescent label: DsRed): 37.8 µM
- IC50 ([2]; fluorescent label: GFP): 59.4 µM

Compound: CN(C)[C@@H]1C(O)=C(C(N)=O)C(=O)[C@@]2(O)C(O)=C3C(=O)c4c(O)ccc(Cl)c4[C@@](C)(O)[C@H]3C[C@@H]12 [AUREOMYCIN]
- IC50 ([1]; fluorescent label: DsRed): < 9.85 µM
- IC50 ([1]; fluorescent label: GFP): < 9.85 µM
- IC50 ([2]; fluorescent label: DsRed): < 9.85 µM
- IC50 ([2]; fluorescent label: GFP): < 9.85 µM

Compound: O=Nc1ccc2oc(=O)ccc2c1 [6-Nitroso-1,2-benzopyrone]
- IC50 ([1]; fluorescent label: DsRed): 53.1 µM
- IC50 ([1]; fluorescent label: GFP): 57.9 µM
- IC50 ([2]; fluorescent label: DsRed): 31 µM
- IC50 ([2]; fluorescent label: GFP): 32.1 µM

Compound: CC(=O)Oc1c2c(c(CC=C(C)C)c3c1C(=O)C1=C[C@@H]4CC5C(C)(C)OC(C/C=C(\C)C(=O)O)(C4=O)[C@@]15O3)OC(C)(CCC=C(C)C)C=C2 (stereo partly specified) [ACETYL ISOGAMBOGIC ACID]
- IC50 ([1]; fluorescent label: DsRed): 13.5 µM
- IC50 ([1]; fluorescent label: GFP): 17.2 µM
- IC50 ([2]; fluorescent label: DsRed): < 9.85 µM
- IC50 ([2]; fluorescent label: GFP): < 9.85 µM

Compound: Cc1cc(C2CCCCC2)n(O)c(=O)c1 [Ciclopirox ethanolamine]
- IC50 ([1]; fluorescent label: DsRed): 24.5 µM and 49.9 µM
- IC50 ([1]; fluorescent label: GFP): 29.7 µM and 60.7 µM
- IC50 ([2]; fluorescent label: DsRed): 28.3 µM and 61.2 µM
- IC50 ([2]; fluorescent label: GFP): 29.8 µM and 57.2 µM

Compound: O=C(O)c1cn(-c2ccc(F)cc2)c2cc(N3CCNCC3)c(F)cc2c1=O [SARAFLOX]
- IC50 ([1]; fluorescent label: DsRed): < 9.85 µM
- IC50 ([1]; fluorescent label: GFP): < 9.85 µM
- IC50 ([2]; fluorescent label: DsRed): < 9.85 µM
- IC50 ([2]; fluorescent label: GFP): < 9.85 µM

Compound: CN(C)[C@@H]1C(=O)C(C(N)=O)=C(O)[C@@]2(O)C(=O)C3=C(O)c4c(O)ccc(Cl)c4[C@@H](O)[C@H]3C[C@@H]12 [Demeclocycline hydrochloride]
- IC50 ([1]; fluorescent label: DsRed): < 9.85 µM
- IC50 ([1]; fluorescent label: GFP): < 9.85 µM
- IC50 ([2]; fluorescent label: DsRed): < 9.85 µM
- IC50 ([2]; fluorescent label: GFP): < 9.85 µM

Compound: CC[C@H](C)C[C@H](C)CCCCCCCCC(=O)N[C@H]1C[C@@H](O)[C@@H](NCCN)NC(=O)[C@@H]2[C@@H](O)CCN2C(=O)[C@H]([C@H](O)CCN)NC(=O)[C@H]([C@H](O)[C@@H](O)c2ccc(O)cc2)NC(=O)[C@@H]2C[C@@H](O)CN2C(=O)[C@H]([C@@H](C)O)NC1=O [Caspofungin acetate]
- IC50 ([1]; fluorescent label: DsRed): 36.7 µM
- IC50 ([1]; fluorescent label: GFP): 42.1 µM
- IC50 ([2]; fluorescent label: DsRed): 14.4 µM
- IC50 ([2]; fluorescent label: GFP): < 9.85 µM

Compound: COc1cc(/C=C/C(=O)CC(=O)/C=C/c2ccc(O)c(OC)c2)ccc1O [Curcumin]
- IC50 ([1]; fluorescent label: DsRed): 34.7 µM
- IC50 ([1]; fluorescent label: GFP): 53.8 µM
- IC50 ([2]; fluorescent label: DsRed): 4.13 µM
- IC50 ([2]; fluorescent label: GFP): 3.73 µM

Compound: CC1(C)CCC2=C(O1)c1ccccc1C(=O)C2=O [beta-Lapachone]
- IC50 ([1]; fluorescent label: DsRed): 12.9 µM
- IC50 ([1]; fluorescent label: GFP): 28.3 µM
- IC50 ([2]; fluorescent label: DsRed): < 9.85 µM
- IC50 ([2]; fluorescent label: GFP): < 9.85 µM

Compound: CSc1nc2cc(Cl)c(Oc3cccc(Cl)c3Cl)cc2[nH]1 [TRICLABENDAZOLE]
- IC50 ([1]; fluorescent label: DsRed): 14.4 µM
- IC50 ([1]; fluorescent label: GFP): 13.9 µM
- IC50 ([2]; fluorescent label: DsRed): < 9.85 µM
- IC50 ([2]; fluorescent label: GFP): < 9.85 µM

Compound: O=C(Nc1ncc(SCCN2CCCC2)s1)[C@]1(c2ccc(S(=O)(=O)C3CC3)cc2)C[C@H]1C1CCCCC1
- IC50 ([1]; fluorescent label: DsRed): 111 µM
- IC50 ([1]; fluorescent label: GFP): > 150 µM
- IC50 ([2]; fluorescent label: DsRed): 74.5 µM
- IC50 ([2]; fluorescent label: GFP): 34.4 µM

Compound: Nc1ccn([C@@H]2O[C@H](CO)[C@@H](O)C2(F)F)c(=O)n1 [Gemcitabine hydrochloride]
- IC50 ([1]; fluorescent label: DsRed): < 9.85 µM
- IC50 ([1]; fluorescent label: GFP): < 9.85 µM
- IC50 ([2]; fluorescent label: DsRed): < 9.85 µM
- IC50 ([2]; fluorescent label: GFP): < 9.85 µM

Compound: CCn1cc(C(=O)O)c(=O)c2cc(F)c(N3CCN(C)CC3)cc21 [Pefloxacin Mesylate Dihydrate]
- IC50 ([1]; fluorescent label: DsRed): < 9.85 µM
- IC50 ([1]; fluorescent label: GFP): < 9.85 µM
- IC50 ([2]; fluorescent label: DsRed): < 9.85 µM
- IC50 ([2]; fluorescent label: GFP): < 9.85 µM

Compound: O=C(/C=C/c1ccccc1)c1ccc(O)cc1 [4'-HYDROXYCHALCONE]
- IC50 ([1]; fluorescent label: DsRed): 77.3 µM
- IC50 ([1]; fluorescent label: GFP): 101 µM
- IC50 ([2]; fluorescent label: DsRed): 19.7 µM
- IC50 ([2]; fluorescent label: GFP): 19.6 µM

Compound: CN(C)C[C@H](O)Cn1c2ccc(Br)cc2c2cc(Br)ccc21 (racemic) [Wiskostatin]
- IC50 ([1]; fluorescent label: DsRed): 17.6 µM
- IC50 ([1]; fluorescent label: GFP): 20.5 µM
- IC50 ([2]; fluorescent label: DsRed): < 9.85 µM
- IC50 ([2]; fluorescent label: GFP): < 9.85 µM

Compound: O=C1NC(=O)[C@@H](c2cn3c4c(cccc24)CCC3)[C@@H]1c1c[nH]c2ccccc12 [ARQ 197 (Tivantinib)]
- IC50 ([1]; fluorescent label: DsRed): 107 µM
- IC50 ([1]; fluorescent label: GFP): 112 µM
- IC50 ([2]; fluorescent label: DsRed): 32.2 µM
- IC50 ([2]; fluorescent label: GFP): 57.3 µM

Compound: CCC(Cc1c(I)cc(I)c(N)c1I)C(=O)O (stereo unspecified) [TELEPAQUE]
- IC50 ([1]; fluorescent label: DsRed): 10.4 µM
- IC50 ([1]; fluorescent label: GFP): 27.5 µM
- IC50 ([2]; fluorescent label: DsRed): < 9.85 µM
- IC50 ([2]; fluorescent label: GFP): < 9.85 µM

Compound: Cc1onc(-c2ccccc2)c1C(=O)N[C@@H]1C(=O)N2[C@@H]1SC(C)(C)[C@@H]2C(=O)O [Oxacillin sodium monohydrate]
- IC50 ([1]; fluorescent label: DsRed): < 9.85 µM
- IC50 ([1]; fluorescent label: GFP): < 9.85 µM
- IC50 ([2]; fluorescent label: DsRed): < 9.85 µM
- IC50 ([2]; fluorescent label: GFP): < 9.85 µM

Compound: Clc1ccc(C(Cn2ccnc2)OCc2ccsc2Cl)c(Cl)c1 (stereo unspecified) [Tioconazole]
- IC50 ([1]; fluorescent label: DsRed): 29.7 µM
- IC50 ([1]; fluorescent label: GFP): 17.8 µM
- IC50 ([2]; fluorescent label: DsRed): 3.9 µM
- IC50 ([2]; fluorescent label: GFP): 14.2 µM
